From patent publication US11667649B2, “Heteroaromatic macrocyclic ether chemotherapeutic agents” (Nuvalent, Inc., priority 2020, dated 2023) come the findings set out here.

The subject of this assay is TPM3-NTRK1-wt IC50 / primary target (e.g. CD74-ROS1-wt) IC50, Ba/F3 cells. The experiment in a line: Cell assay TRKA selectivity (TRKA potency divided by primary target potency). The format is cell-based. To be noted: for TPM3-NTRK1-wt/CD74-ROS1-G2032R: TRKA selectivity ratio: TPM3-NTRK1-wt IC50 / CD74-ROS1-G2032R IC50, Ba/F3 cells; for TPM3-NTRK1-wt/CD74-ROS1-wt: TRKA selectivity ratio: TPM3-NTRK1-wt IC50 / CD74-ROS1-wt IC50, Ba/F3 cells; for TPM3-NTRK1-wt/EML4-ALK-L1196M-G1202R: TRKA selectivity ratio: TPM3-NTRK1-wt IC50 / EML4-ALK-L1196M-G1202R IC50, Ba/F3 cells; for TPM3-NTRK1-wt/EML4-ALK-wt: TRKA selectivity ratio: TPM3-NTRK1-wt IC50 / EML4-ALK-wt IC50, Ba/F3 cells. The procedure, abridged: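 IL-3-independent Ba/F3 lines stably expressing TPM3-TRKA or the primary fusion (e.g. CD74-ROS1 wt) were exposed to 3-fold compound dilutions for 72 h. Viability was read by CellTiter-Glo luminescence, with IC50 from four-parameter logistic fit. Selectivity is TPM3-NTRK1 IC50 divided by primary-target IC50, binned A (>30-fold) to D (<1).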

With `C[C@H]1Oc2cc(cnc2N)-c2c(C#N)nn(C)c2Cc2csnc2-c2ccc(F)cc21` [Example 143, (19R)-22-amino-16-fluoro-5,19-dimethyl-20-oxa-10-thia-4,5,11,23-tetraazapentacyclo[19.3.1.0^2,^6.0^8,^12.0^13,^18]pentacosa-1(24),2(6),3,8,11,13,15,17,21(25),22-decaene-3-carbonitrile], the TPM3-NTRK1-wt/CD74-ROS1-G2032R result is “A (bin A for very high selectivity, ratio>30-fold)”; the TPM3-NTRK1-wt/CD74-ROS1-wt result is “A (bin A for very high selectivity, ratio>30-fold)”; the TPM3-NTRK1-wt/EML4-ALK-L1196M-G1202R result is reported as “B (bin B for high selectivity, ratio>10-fold)”; the TPM3-NTRK1-wt/EML4-ALK-wt entry is “A (bin A for very high selectivity, ratio>30-fold)”.
For `COc1cc2n(n1)-c1ccc(F)cc1[C@@H](C)Oc1cc(cnc1N)-c1c(nnn1CC1CC1)C2` [Example 144, (19R)-3-(cyclopropylmethyl)-16-fluoro-10-methoxy-19-methyl-20-oxa-3,4,5,11,12,23-hexaazapentacyclo[19.3.1.0^2,^6.0^8,^12.0^13,^18]pentacosa-1(24),2(6),4,8,10,13,15,17,21(25),22-decaen-22-amine], the TPM3-NTRK1-wt/CD74-ROS1-G2032R entry is listed as “A (bin A for very high selectivity, ratio>30-fold)”; the TPM3-NTRK1-wt/CD74-ROS1-wt entry is “A (bin A for very high selectivity, ratio>30-fold)”; the TPM3-NTRK1-wt/EML4-ALK-L1196M-G1202R result is “B (bin B for high selectivity, ratio>10-fold)”; the TPM3-NTRK1-wt/EML4-ALK-wt entry is “A (bin A for very high selectivity, ratio>30-fold)”.
As to `CCn1ncc2c1-c1cnc(N)c(c1)O[C@H](C)c1cc(F)ccc1-c1nc(OC)ccc1C2` [Example 145, (20R)-3-ethyl-17-fluoro-11-methoxy-20-methyl-21-oxa-3,4,12,24-tetraazapentacyclo[20.3.1.0^2,^6.0^8,^13.0^14,^19]hexacosa-1(25),2(6),4,8(13),9,11,14,16,18,22(26),23-undecaen-23-amine], the TPM3-NTRK1-wt/CD74-ROS1-G2032R entry is listed as “A (bin A for very high selectivity, ratio>30-fold)”; the TPM3-NTRK1-wt/CD74-ROS1-wt result is reported as “A (bin A for very high selectivity, ratio>30-fold)”; the TPM3-NTRK1-wt/EML4-ALK-L1196M-G1202R entry is on record as “C (bin C for moderate selectivity, ratio≥1)”; the TPM3-NTRK1-wt/EML4-ALK-wt entry is “A (bin A for very high selectivity, ratio>30-fold)”.
Take `C[C@H]1Oc2cc(cnc2N)-c2c(CC3CC3)cnn2Cc2cccnc2-c2ccc(F)cc21` [Example 146, (20R)-3-(cyclopropylmethyl)-17-fluoro-20-methyl-21-oxa-5,6,12,24-tetraazapentacyclo[20.3.1.0^2,^6.0^8,^13.0^14,^19]hexacosa-1(25),2,4,8(13),9,11,14,16,18,22(26),23-undecaen-23-amine]: the TPM3-NTRK1-wt/CD74-ROS1-G2032R result is recorded as “A (bin A for very high selectivity, ratio>30-fold)”; the TPM3-NTRK1-wt/CD74-ROS1-wt entry is reported as “A (bin A for very high selectivity, ratio>30-fold)”; the TPM3-NTRK1-wt/EML4-ALK-L1196M-G1202R entry is given as “B (bin B for high selectivity, ratio>10-fold)”; the TPM3-NTRK1-wt/EML4-ALK-wt entry was “A (bin A for very high selectivity, ratio>30-fold)”.
Consider `CCn1nc(OC)c2c1-c1cnc(N)c(c1)O[C@H](C)c1cc(F)ccc1-n1nc(C(F)F)cc1C2` [Example 147, (19R)-10-(difluoromethyl)-3-ethyl-16-fluoro-5-methoxy-19-methyl-20-oxa-3,4,11,12,23-pentaazapentacyclo[19.3.1.0^2,^6.0^8,^12.0^13,^18]pentacosa-1(24),2(6),4,8,10,13,15,17,21(25),22-decaen-22-amine], for which the TPM3-NTRK1-wt/CD74-ROS1-G2032R entry is “A (bin A for very high selectivity, ratio>30-fold)”; the TPM3-NTRK1-wt/CD74-ROS1-wt entry was “A (bin A for very high selectivity, ratio>30-fold)”; the TPM3-NTRK1-wt/EML4-ALK-L1196M-G1202R result is reported as “C (bin C for moderate selectivity, ratio≥1)”; the TPM3-NTRK1-wt/EML4-ALK-wt result was “A (bin A for very high selectivity, ratio>30-fold)”.
As to `CCn1ncc2c1-c1cnc(N)c(c1)O[C@H](C)c1cc(F)ccc1-c1ncc(OC)cc1C2` [Example 149, (20R)-3-ethyl-17-fluoro-10-methoxy-20-methyl-21-oxa-3,4,12,24-tetraazapentacyclo[20.3.1.0^2,^6.0^8,^13.0^14,^19]hexacosa-1(25),2(6),4,8(13),9,11,14,16,18,22(26),23-undecaen-23-amine], the TPM3-NTRK1-wt/CD74-ROS1-G2032R result is on record as “B (bin B for high selectivity, ratio>10-fold)”; the TPM3-NTRK1-wt/CD74-ROS1-wt entry was “A (bin A for very high selectivity, ratio>30-fold)”; the TPM3-NTRK1-wt/EML4-ALK-L1196M-G1202R result is “D (bin D for low selectivity, ratio<1)”; the TPM3-NTRK1-wt/EML4-ALK-wt entry is “B (bin B for high selectivity, ratio>10-fold)”.
As to `CCn1ncc2c1-c1cnc(N)c(c1)O[C@H](C)c1cc(F)ccc1-c1nn(C(C)(C)C)cc1C2` [Example 150, (19R)-10-tert-butyl-3-ethyl-16-fluoro-19-methyl-20-oxa-3,4,10,11,23-pentaazapentacyclo[19.3.1.0^2,^6.0^8,^12.0^13,^18]pentacosa-1(24),2(6),4,8,11,13,15,17,21(25),22-decaen-22-amine], the TPM3-NTRK1-wt/CD74-ROS1-G2032R result is “A (bin A for very high selectivity, ratio>30-fold)”; the TPM3-NTRK1-wt/CD74-ROS1-wt result is listed as “A (bin A for very high selectivity, ratio>30-fold)”; the TPM3-NTRK1-wt/EML4-ALK-L1196M-G1202R result is reported as “C (bin C for moderate selectivity, ratio≥1)”; the TPM3-NTRK1-wt/EML4-ALK-wt result is on record as “B (bin B for high selectivity, ratio>10-fold)”.
For the molecule `CCn1ncc2c1-c1cnc(N)c(c1)O[C@H](C)c1cc(F)ccc1-c1nccc(OC)c1C2` [Example 151, (20R)-3-ethyl-17-fluoro-9-methoxy-20-methyl-21-oxa-3,4,12,24-tetraazapentacyclo[20.3.1.0^2,^6.0^8,^13.0^14,^19]hexacosa-1(25),2(6),4,8(13),9,11,14,16,18,22(26),23-undecaen-23-amine], the TPM3-NTRK1-wt/CD74-ROS1-G2032R entry is “A (bin A for very high selectivity, ratio>30-fold)”; the TPM3-NTRK1-wt/CD74-ROS1-wt entry is “A (bin A for very high selectivity, ratio>30-fold)”; the TPM3-NTRK1-wt/EML4-ALK-L1196M-G1202R entry is “C (bin C for moderate selectivity, ratio≥1)”; the TPM3-NTRK1-wt/EML4-ALK-wt entry is recorded as “A (bin A for very high selectivity, ratio>30-fold)”.
Consider `CCc1onc2c1-c1cnc(N)c(c1)O[C@H](C)c1cc(F)ccc1-c1nn(C)cc1C2` [Example 152, (19R)-3-ethyl-16-fluoro-10,19-dimethyl-4,20-dioxa-5,10,11,23-tetraazapentacyclo[19.3.1.0^2,^6.0^8,^12.0^13,^18]pentacosa-1(24),2,5,8,11,13,15,17,21(25),22-decaen-22-amine], for which the TPM3-NTRK1-wt/CD74-ROS1-G2032R result was “A (bin A for very high selectivity, ratio>30-fold)”; the TPM3-NTRK1-wt/CD74-ROS1-wt result is reported as “A (bin A for very high selectivity, ratio>30-fold)”; the TPM3-NTRK1-wt/EML4-ALK-L1196M-G1202R result is “C (bin C for moderate selectivity, ratio≥1)”; the TPM3-NTRK1-wt/EML4-ALK-wt entry is “A (bin A for very high selectivity, ratio>30-fold)”.
Take `CC(C)Cn1ncc2c1-c1cnc(N)c(c1)O[C@H](C)c1cc(F)ccc1-c1nn(C)cc1C2` [Example 154, (19R)-16-fluoro-10,19-dimethyl-3-(2-methylpropyl)-20-oxa-3,4,10,11,23-pentaazapentacyclo[19.3.1.0^2,^6.0^8,^12.0^13,^18]pentacosa-1(24),2(6),4,8,11,13,15,17,21(25),22-decaen-22-amine]: the TPM3-NTRK1-wt/CD74-ROS1-G2032R entry was “A (bin A for very high selectivity, ratio>30-fold)”; the TPM3-NTRK1-wt/CD74-ROS1-wt entry is “A (bin A for very high selectivity, ratio>30-fold)”; the TPM3-NTRK1-wt/EML4-ALK-L1196M-G1202R result was “B (bin B for high selectivity, ratio>10-fold)”; the TPM3-NTRK1-wt/EML4-ALK-wt result is listed as “A (bin A for very high selectivity, ratio>30-fold)”.
Take `CCc1nsc2c1-c1cnc(N)c(c1)O[C@H](C)c1cc(F)ccc1-c1nn(C)cc1C2` [Example 155, (19R)-3-ethyl-16-fluoro-10,19-dimethyl-20-oxa-5-thia-4,10,11,23-tetraazapentacyclo[19.3.1.0^2,^6.0^8,^12.0^13,^18]pentacosa-1(24),2(6),3,8,11,13,15,17,21(25),22-decaen-22-amine]: the TPM3-NTRK1-wt/CD74-ROS1-G2032R entry is given as “C (bin C for moderate selectivity, ratio≥1)”; the TPM3-NTRK1-wt/CD74-ROS1-wt entry is reported as “A (bin A for very high selectivity, ratio>30-fold)”; the TPM3-NTRK1-wt/EML4-ALK-L1196M-G1202R result is “D (bin D for low selectivity, ratio<1)”; the TPM3-NTRK1-wt/EML4-ALK-wt entry is given as “A (bin A for very high selectivity, ratio>30-fold)”.
For `CCn1nc(C#N)c2c1-c1cnc(N)c(c1)O[C@H](C)c1cc(F)ccc1-c1nn(C)cc1C2` [Example 156, (19R)-22-amino-3-ethyl-16-fluoro-10,19-dimethyl-20-oxa-3,4,10,11,23-pentaazapentacyclo[19.3.1.0^2,^6.0^8,^12.0^13,^18]pentacosa-1(24),2(6),4,8,11,13,15,17,21(25),22-decaene-5-carbonitrile], the TPM3-NTRK1-wt/EML4-ALK-L1196M-G1202R entry is “C (bin C for moderate selectivity, ratio≥1)”.
For the molecule `CCn1ncc2c1-c1cnc(N)c(c1)O[C@H](C)c1cc(F)ccc1-c1nn(C)c(OC)c1C2` [Example 157, (19R)-3-ethyl-16-fluoro-9-methoxy-10,19-dimethyl-20-oxa-3,4,10,11,23-pentaazapentacyclo[19.3.1.0^2,^6.0^8,^12.0^13,^18]pentacosa-1(24),2(6),4,8,11,13,15,17,21(25),22-decaen-22-amine], the TPM3-NTRK1-wt/CD74-ROS1-G2032R result is reported as “A (bin A for very high selectivity, ratio>30-fold)”; the TPM3-NTRK1-wt/CD74-ROS1-wt entry is listed as “A (bin A for very high selectivity, ratio>30-fold)”; the TPM3-NTRK1-wt/EML4-ALK-L1196M-G1202R entry is recorded as “C (bin C for moderate selectivity, ratio≥1)”; the TPM3-NTRK1-wt/EML4-ALK-wt entry is on record as “A (bin A for very high selectivity, ratio>30-fold)”.
